Reference: patent US11319289B2, “5-hydroxy pyridine-based compound for use as P2X1 and P2X3 receptor antagonist and pharmaceutical composition comprising same” (GWANGJU INSTITUTE OF SCIENCE AND TECHNOLOGY, priority 2017, dated 2022)
Like-named read-outs stand apart in the source and are kept apart here.

Columns and labels:
[1] = Plasma and brain concentrations after intravenous administration of Compound 28 in rats; type: in vivo, SD rats; conditions: for concentration in the brain tissue: 0.5 hour after intravenous administration of Compound 28; for Kp / concentration at 0.5 h / concentration at 2 h / concentration at 4 h / concentration at 8 h / Kp at 0.5 h / Kp at 2 h / Kp at 4 h / Kp at 8 h: male, rat, iv; for Kp: SD, 5 mg/kg, after i.v. Compound 28, over the time points of Table 6, read-out: brain to plasma ratio; for Kp / Kp at 0.5 h / Kp at 2 h / Kp at 4 h / Kp at 8 h: brain/plasma; for concentration at 0.5 h / Kp at 0.5 h: 0.5 hr after i.v. Compound 28 5 mg/kg; for concentration at 0.5 h / concentration at 2 h / concentration at 4 h / concentration at 8 h / Kp at 0.5 h / Kp at 2 h / Kp at 4 h / Kp at 8 h: rats, mean±SD; for concentration at 2 h / Kp at 2 h: 2 hr after i.v. Compound 28 5 mg/kg; for concentration at 4 h / Kp at 4 h: 4 hr after i.v. Compound 28 5 mg/kg; for concentration at 8 h / Kp at 8 h: 8 hr after i.v. Compound 28 5 mg/kg; for Kp at 0.5 h / Kp at 2 h / Kp at 4 h / Kp at 8 h: read-out: Brain to plasma ratio
Protocol: 7 to 8-weeks old male SD rats (weight of 250 to 290 g) were purchased from SAMTACO (Osan, […], South Korea) and given commercial rat feed (SAMTACO, Osan, Kyungki-Do, South Korea) and water to be consumed freely. 3 rats were housed per each cage at a temperature of 23±2° C. and a relative humidity of 50 to 60% under light-darkness cycles of 12±12 hours. The rats were allowed to acclimate to these conditions for at least one week before the experiments was carried out. The rats were fasted for 12 hours before the experiment and given the tap water to be consumed freely. Compound 28 was administered to the caudal vein at a dose of 5 mg/kg. At 0.5, 2, 4 and 8 hours after intravenous administration, each animal was sacrificed by cervical dislocation. Blood samples were centrifuged at 12,000 rpm for 5 minutes and immediately stored at […] until analysis. After collecting the blood samples, the brains were harvested. Then, the brain tissues were accurately weighed and homogenized with 4-fold volumes of distilled water (IKA T10 basic homogenizer, IKA, Staufen, Germany). The homogenized brain samples were centrifuged at 12,000 rpm for 10 minutes and stored at −20° C. until analysis of 500 μl aliquots. Quantification of the samples was performed using an LC-MS/MS system. The HPLC system is composed of an Agilent 1290 series rapid resolution LC system that includes a binary pump (model: G4220A), an autosampler (model: G4226A) and a column oven (model: G1316C). Mass spectrometer analysis was performed using a Sciex 4000 Q-Trap® mass spectrometer (Applied Biosystems Sciex, Toronto, Ontario, Canada) equipped with an electrospray ionization source. Data acquisition and quantification were performed using the Analyst software version 1.6 from AB SCIEX, and chromatographic separations were performed using Gemini NX C18 (2.0×100 mm, 3 μm, Phenomenex, USA). The mobile phase consisted of ACN (0.1% formic acid) and water (0.1% formic acid) (50:50, v/v). The flow rate was 0.25 mL/min, and the injection volume was set at 5 μL. Mass spectrometry was optimized and performed using a multiple reaction monitoring (MRM) scan in cation mode. The m/z transition was set from 392.1 to 360.2 for Compound 28 and from 378.2 to 360.2 for Compound 29. Preparation of plasma and brain homogenous samples includes protein precipitation with acetonitrile. In 1.5 mL polyethylene microtubes, 5 μL of IS (cimetidine, 10 μg/ml) was added to 50 μL of plasma or tissue homogenate. Subsequently, 150 μl of acetonitrile (extraction solvent) was added to the tube. After vortexing for 30 seconds, the mixture was centrifuged for 5 minutes at 12,000 rpm. 10 μl of supernatant was injected directly into the HPLC column.

rats = assay: Behavioral test (righting, placing-stepping, pinna and corneal reflexes); type: in vivo, rat; conditions: maximum dose, intrathecal or intravenous administration
Protocol: 4-1. Behavioral Efficacy Test Method
Additional rats received the highest doses of drugs used to evaluate behavioral changes at 5, 10, 20, 30, 40, 50, and 60 min after intrathecal or intravenous administration to caudal vein. Motor functions were examined using the righting and placing-stepping reflexes. The righting reflex was evaluated by an immediate coordinated twisting of the body to an upright position when placing the rat horizontally with its back on the table. The placing-stepping reflex was induced by drawing the dorsum of hind paw across the edge of the table. Rats normally attempt to put their paws forward into a position for walking. Pinna and corneal reflexes were also assessed and judged as present or absent. Other abnormal behaviors, such as serpentine movement or tremors, were also evaluated.

[2] = brain, read-out: Brain concentration
[3] = plasma, read-out: Plasma concentration

Row | SMILES | brain concentration of Compound 28 relative to Compound 29 ([1]; 0.5 hour after i.v. Compound 28) | concentration in the brain tissue [1] | Kp [1] | concentration at 0.5 h [1, 2] | concentration at 2 h [1, 2] | concentration at 4 h [1, 2] | concentration at 8 h [1, 2] | Kp at 0.5 h [1] | Kp at 2 h [1] | Kp at 4 h [1] | Kp at 8 h [1] | concentration at 0.5 h [1, 3] | concentration at 2 h [1, 3] | concentration at 4 h [1, 3] | concentration at 8 h [1, 3] | abnormal behavior changes (rats) | pinna and corneal reflexes (rats) | righting and position-stepping reflexes (rats)
1 | CCCc1nc(Cc2cccc(Oc3ccccc3)c2)c(C)c(C(=O)OC)c1O [Compound 28, Methyl 3-hydroxy-5-methyl-6-(3-phenoxybenzyl)-2-propylisonicotinate] | 50 times | 1.11 μg/g tissue | 1.13 to 1.79 | 1110 ± 360 ng/g | 90 ± 10 ng/g | 50 ± 10 ng/g | 30 ± 10 ng/g | 1.79 ± 0.44 | 1.13 ± 0.25 | 0.94 ± 0.21 | 1.19 ± 0.41 | 620 ± 140 ng/mL | 80 ± 20 ng/mL | 60 ± 10 ng/mL | 20 ± 10 ng/mL | no obvious abnormal behavior changes were observed | present | normal
2 | CCCc1nc(Cc2cccc(Oc3ccccc3)c2)c(C)c(C(=O)O)c1O [Compound 29, 3-Hydroxy-5-methyl-6-(3-phenoxybenzyl)-2-propylisonicotinic acid] |  | 0.022 μg/g tissue | < 0.25 | 22 ± 3 ng/g | 2 ± 1 ng/g | 1 ng/g | 1 ± 1 ng/g | 0.24 ± 0.13 | 0.08 ± 0.02 | 0.05 ± 0.03 | 0.1 ± 0.12 | 110 ± 50 ng/mL | 30 ng/mL | 20 ± 10 ng/mL | 10 ng/mL | no obvious abnormal behavior changes were observed | present | normal
